# Test results as given in paper PMC10682503, “Structural and functional basis of inositol hexaphosphate stimulation of NHEJ through stabilization of Ku-XLF interaction” (Nucleic Acids Research, 2023).
# Counter-ions that a name gives are not always drawn.
# Tests used:
# [1] = system: HEK-293T cells; experiment: Dual dEJ/HR reporter assay; type: cell-based, human; conditions: versus control without inhibitors; for expression of the HR marker BFP / HR activity: NU7441 3 μM or B02 10 μM
# Text: The dEJ-HR dual reporter substrate for both direct end-joining and homologous recombination was assembled into the pEGFP-N1 vector (Clontech) following sequential insertion of various PCR products, oligonucleotide linkers and synthetic DNA fragments (see Supplementary Information for a detailed description). The Cas9 and guide RNA co-expression plasmid used to cleave the reporter substrate was generated by inserting the pre-annealed gRNA-dEJ-HR-F and gRNA-dEJ-HR-R oligonucleotides into the BbsI restriction sites of pX330-U6-Chimeric_BB-CBh-hSpCas9 (a gift from Feng Zhang; Addgene plasmid # 42230; http://n2t.net/addgene:42230; RRID:Addgene_42230). The pmCherry-NLS plasmid (a gift from Martin Offterdinger; Addgene plasmid # 39319; http://n2t.net/addgene:39319; RRID:Addgene_39319) was used as an internal control of transfection efficiency in end-joining assays.
# Cell lines and cultures are described in Figure 5 legend. HEK-293T cells were seeded in 6-well plates and transfected 24 h later with a mix of reporter substrate (500 ng), Cas9/gRNA expressing vector (300 ng) and pmCherry-NLS control plasmid (200 ng) using JetPEI (PolyPlus-Transfection, Illkirch-Graffenstaden, France). When indicated, cells were treated at the time of transfection with 3 μM DNA-PK inhibitor NU7441 (Tocris, Bristol, UK) or 10 μM Rad51 inhibitor B02 (Sigma-Aldrich St. Louis, MO). Cells were trypsinized 2 days post-transfection, washed with PBS and analysed by flow cytometry on a Fortessa X-20 cell analyzer (BD Biosciences). For each cell population, the integrated fluorescence signal (% positive cells × mean fluorescence) was calculated for each repair readout (i.e. GFP for direct end-joining and BFP for gene conversion) and normalized to that of transfection control (mCherry). Western blots, antibodies, oligonucleotides, plasmids and DNA manipulations, generation of U2OS shKu80 cells and generation of HEK-293T mAID-Ku70/mAID-Ku80 cells are described in Supplemental Information.
# [2] = molecular target: T1, KuFL (full-length human Ku70–Ku80 heterodimer) (Homo sapiens, UniProt P12956+P13010); experiment: Isothermal titration calorimetry (ITC), KuFL with IP6 and IP6 analogues; type: binding; conditions: 25 °C, Ku 4 µM in cell, IPs 40 µM in syringe
# T1 construct: The full-length human Ku heterodimer subunits (Ku70 1–609, Ku80 1–732); 10x His-tag with TEV site (N); made in house; host or cells: Sf21 insect cells (baculovirus, MultiBac)
# T1 sequence (P12956 whole entry): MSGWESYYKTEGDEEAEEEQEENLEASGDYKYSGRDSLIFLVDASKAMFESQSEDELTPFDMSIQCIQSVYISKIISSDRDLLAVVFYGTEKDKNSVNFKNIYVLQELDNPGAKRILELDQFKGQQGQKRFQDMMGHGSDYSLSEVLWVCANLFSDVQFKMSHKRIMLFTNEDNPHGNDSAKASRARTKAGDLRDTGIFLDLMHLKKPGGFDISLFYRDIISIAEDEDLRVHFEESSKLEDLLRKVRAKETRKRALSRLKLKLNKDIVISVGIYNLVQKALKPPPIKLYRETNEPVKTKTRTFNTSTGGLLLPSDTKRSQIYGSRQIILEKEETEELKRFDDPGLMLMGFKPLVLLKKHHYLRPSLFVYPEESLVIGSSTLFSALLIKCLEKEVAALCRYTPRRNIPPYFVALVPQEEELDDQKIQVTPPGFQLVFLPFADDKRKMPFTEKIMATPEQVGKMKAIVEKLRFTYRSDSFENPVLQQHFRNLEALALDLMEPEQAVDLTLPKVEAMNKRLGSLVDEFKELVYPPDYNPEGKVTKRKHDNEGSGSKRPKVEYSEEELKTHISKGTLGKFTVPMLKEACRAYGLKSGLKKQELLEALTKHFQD
# T1 sequence (P13010 whole entry): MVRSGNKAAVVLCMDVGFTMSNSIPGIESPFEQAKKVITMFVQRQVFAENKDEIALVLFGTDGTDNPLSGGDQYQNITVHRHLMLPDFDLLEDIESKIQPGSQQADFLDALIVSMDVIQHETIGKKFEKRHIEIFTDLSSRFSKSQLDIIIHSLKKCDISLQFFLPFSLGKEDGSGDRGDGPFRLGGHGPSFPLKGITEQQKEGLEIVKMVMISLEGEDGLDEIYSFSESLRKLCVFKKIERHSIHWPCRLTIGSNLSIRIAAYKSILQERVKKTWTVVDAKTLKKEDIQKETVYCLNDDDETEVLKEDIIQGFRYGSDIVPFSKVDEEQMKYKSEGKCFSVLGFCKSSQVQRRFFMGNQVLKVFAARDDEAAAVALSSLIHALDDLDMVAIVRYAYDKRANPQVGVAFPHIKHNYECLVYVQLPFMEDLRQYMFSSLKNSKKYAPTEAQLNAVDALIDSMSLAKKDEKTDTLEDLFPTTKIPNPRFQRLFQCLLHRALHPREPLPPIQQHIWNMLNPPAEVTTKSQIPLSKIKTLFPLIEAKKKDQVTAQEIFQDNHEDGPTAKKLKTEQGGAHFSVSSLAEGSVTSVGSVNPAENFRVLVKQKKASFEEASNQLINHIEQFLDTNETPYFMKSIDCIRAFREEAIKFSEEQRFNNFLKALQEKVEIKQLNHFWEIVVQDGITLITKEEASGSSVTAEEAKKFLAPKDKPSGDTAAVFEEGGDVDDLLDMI
# Experimental: Purification of Ku full-length (KuFL) for cryo-EM experiments was carried out as described previously ([5]). Expression and purification of KuFL for biophysical experiments was carried out as described previously ([20]). The full-length human Ku heterodimer subunits (Ku70 1–609, Ku80 1–732) were cloned into a Multibac vector ([21]). The construct has a 10× His-tag and a TEV site on the N-terminus of Ku80 and no-tag on Ku70. Protein production was initiated in Sf21 cells by infection with the baculovirus stock at MOI of 5 × 10^−3 and cells were collected 5–6 days after the infection (3–4 days after the proliferation arrest). Cells were sonicated and the supernatant was incubated with Benzonase (300 units for 30 min at 4°C). The Ku heterodimer was purified on a NiNTA-Agarose affinity column (Protino, Macherey Nagel) with a 1 M NaCl wash step to remove DNA excess. The eluted Ku was then bound onto an anion exchange column (Resource Q, Cytiva) equilibrated in 20 mM Tris pH 8.0, 50 mM NaCl, 50 mM KCl, 10 mM β-mercaptoethanol and eluted with a salt gradient. The final yield was about 20 mg of purified heterodimer per litre of culture. KuΔC constructs, heterodimer deleted of its C-terminal region (Ku70 1–544, Ku80 1–551) for X-ray crystallography, Ku mutants, Ku-2E (Ku with mutation in K357E on Ku70 and K481E on Ku80) and Ku-4E (Ku with mutations in H359E and H360E on Ku70 and K413E and H414E on Ku80) were cloned in the same vector and produced following the same protocol as KuFL expressed in Sf21 insect cells.
# Calorimetry. Interactions between KuFL and inositol phosphates (IPs) (IP6 and IP6 analogues) were determined by Isothermal Titration Calorimetry (ITC) using a VP-ITC calorimeter (Malvern). Prior to measurements, all solutions were degassed under vacuum. The reaction cell of the ITC (volume 1.8 mL) was loaded with Ku heterodimers at 4 µM concentration. […] The free energy of binding (ΔG) and the entropy (ΔS) were determined using the classical thermodynamic formula, ΔG = - RT ln(Ka) and ΔG = ΔH - TΔS. […]
# [3] = system: Ku70-Ku80 full length (KuFL, His-Ku80) (human); experiment: switchSENSE; conditions: Single-molecule: 20 mM Tris pH 7.5, 100 mM KCl, 2.5 mM MgCl2, 1 mg/mL BSA, 2 mM DTT, 0.8% glucose, 0.1% Trolox, 1% GLOX, 1 nM Ku, switchSENSE (15-240 nM Ku) …
# [4] = system: HEK-293T cells expressing Ku-wt; experiment: Cell fractionation and western blot of chromatin and soluble fractions; type: cell-based, human; conditions: 1 h
# Experimental: Stock solution of Calicheamicin γ1 (Cali), gift from P.R. Hamann (Wyeth Research, Pearl River, NY, USA), was made at 40 μM in ethanol and stored at –20°C. For drug-exposure, exponentially growing cells in […] were either mock-treated or treated with Cali in fresh medium for 1 h at 37°C. Then cells were washed with phosphate-buffered saline and trypsinized. Pellets were fractionated as follows. Cells were first resuspended for 7 min on ice in 120 μL of extraction buffer 1 (50 mM HEPES pH 7.5, 150 mM NaCl, 1 mM EDTA) containing 0.1% Triton X-100 and supplemented with the Halt protease and phosphatase inhibitor cocktail (Thermo Fisher Scientific) with intermittent gentle vortexing. […] Protein content was measured with BCA reagent (Pierce) and equivalent protein amounts were denaturated in loading buffer at 1× final concentration (50 mM Tris–HCl pH 6.8, 10% glycerol, 1% SDS, 300 mM 2-mercaptoethanol, 0.01% bromophenol blue) at 95°C for 5 min, separated on SDS-PAGE gels (BioRad 4–15% TGX pre-cast gels) before overnight transfer onto Immobilon-P polyvinylidene difluoride (PVDF, Millipore) membranes. […]
# [5] = molecular target: full-length human Ku70–Ku80 heterodimer (KuFL), expressed in Sf21 insect cells (human) (UniProt P12956); experiment: switchSENSE; fluorescent DNA hybridised on the gold surface of the chip, Ku bound to this DNA in saturating conditions, then XLF injected (1, 2 and 8 μM); absence of IP6; biphasic, two steps binding mode fit; apparent affinities
# full-length human Ku70–Ku80 heterodimer (KuFL), expressed in Sf21 insect cells (human), sequence (P12956 whole entry, chain 1 of 2): as the sequence (P12956 whole entry) above
# full-length human Ku70–Ku80 heterodimer (KuFL), expressed in Sf21 insect cells (human), sequence (P13010 whole entry, chain 2 of 2, further chain): as the sequence (P13010 whole entry) above
# [6] = molecular target: full-length human Ku70–Ku80 heterodimer (KuFL), expressed in Sf21 insect cells (human) (UniProt P12956); experiment: switchSENSE; fluorescent DNA hybridised on the gold surface of the chip, Ku bound to this DNA in saturating conditions, then XLF injected (1, 2 and 8 μM); 20 μM IP6 during Ku association and XLF titration; biphasic, two steps binding mode fit; apparent affinities
# XLF, sequence (Q9H9Q4 whole entry): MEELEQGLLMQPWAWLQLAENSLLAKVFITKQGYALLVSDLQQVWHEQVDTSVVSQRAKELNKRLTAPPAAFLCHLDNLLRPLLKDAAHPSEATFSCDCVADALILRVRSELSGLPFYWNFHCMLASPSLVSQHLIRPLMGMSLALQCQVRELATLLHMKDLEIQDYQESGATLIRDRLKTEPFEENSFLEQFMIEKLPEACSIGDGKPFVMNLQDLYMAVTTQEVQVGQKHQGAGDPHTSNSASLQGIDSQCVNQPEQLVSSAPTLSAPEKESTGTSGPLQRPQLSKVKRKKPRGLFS
molecule,measurement,setting,value
O=c1c2ccccc2nc(/C=C/c2cccnc2)n1Cc1ccccc1 [B02],expression of the HR marker BFP / HR activity,[1],decreased
"O=P(O)(O)O[C@H]1[C@H](OP(=O)(O)O)[C@@H](OP(=O)(O)O)[C@H](OP(=O)(O)O)[C@@H](OP(=O)(O)O)[C@H]1OP(=O)(O)O [scyllo-IP6, scyllo-inositol hexakisphosphate sodium salt]",Kd,[2],18 ± 2.5 nM
48 bp dsDNA (switchSENSE),Kd,"[3]; 3 uM IP6, kon 6.35e5 M-1 s-1, koff 1.27e-3 s-1",1.99 nM
same,Kd,"[3]; no IP6, kon 6.94e5 M-1 s-1, koff 2.26e-3 s-1",3.25 nM
Calicheamicin γ1,"XLF, Lig4 and PAXX in the soluble proteins fraction",[4]; highest dose of calicheamicin,depleted from the soluble proteins fraction
same,NHEJ proteins including XLF and PAXX in the chromatin fraction,[4]; increasing concentrations of calicheamicin,increasingly detected in the chromatin fraction
XLF (from UniProt Q9H9Q4 1-299) (natural protein),"KD1 (first of two apparent affinities, biphasic fit; without IP6)",[5],3.6 µM
same,"KD2 (second of two apparent affinities, biphasic fit; without IP6)",[5],1.9 µM
same,"KD1 (first of two apparent affinities, biphasic fit; with 20 μM IP6)",[6],1.2 µM
same,"KD2 (second of two apparent affinities, biphasic fit; with 20 μM IP6)",[6],0.13 µM
"O=P(O)(O)OC1C(OP(=O)(O)O)C(OP(=O)(O)O)C(OP(=O)(O)O)C(OP(=O)(O)O)C1OP(=O)(O)O [D-chiro-IP6, D-chiro-inositol 1,2,3,4,5,6-hexakisphosphate sodium salt]",Kd,[2],22 ± 6.8 nM
O=c1cc(N2CCOCC2)oc2c(-c3cccc4c3sc3ccccc34)cccc12 [NU7441],expression of the HR marker BFP / HR activity,[1],compensatory increase in HR
same,expression of the direct EJ (dEJ) marker GFP,[1]; NU7441 3 μM,decreased
